# Results taken from US20110098309A1, “METHODS OF INHIBITING THE FORMATION OF AMYLOID-BETA DIFFUSABLE LIGANDS USING ACYLHYDRAZIDE COMPOUNDS” (priority 2007, published 2011).
# Where “and” joins values, the source holds several entries; their conditions need not be identical. Equal entries are not always repeated.
# Key:
# Aβ1-42 ADDLs = target: T1, Aβ1-42 ADDLs (Homo sapiens, UniProt P05067); assay: Alternating Lever Cyclic Ratio (ALCR) rat model; format: in vivo; details: for Approach Errors / Perseveration Errors: injection via cannula into lateral ventricle, compared to baseline error rates
# T1 construct: Synthetic Aβ1-42 powder was dissolved in 1,1,1,3,3,3-hexafluorisopropanol (HFIP)
# Method: Preparations of Aβ1-42 ADDLs and a potential therapeutic compound under the Alternating Lever Cyclic Ratio (ALCR) rat model of AD were tested to show in vivo efficacy. This highly sensitive model has been able to detect cognitive deficits due to direct injection of cell-derived Aβ oligomers into rat brain. Using this technique, a direct injection of ADDLs made from synthetic Aβ1-42 and a putative therapeutic compound under the ALCR procedure were tested.
# In this task, rats learned a complex sequence of lever-pressing requirements in order to earn food reinforcement in a two-lever experimental chamber. Subjects alternated between two levers by switching to the other lever after pressing the first lever enough to get food reward. The exact number of presses required for each food reward changed, first increasing from 2 responses per food pellet up to 56 presses per food pellet, then decreasing back to 2 responses per pellet. Intermediate values were based on the quadratic function, x^2−x. One cycle was an entire ascending and descending sequence of these lever press requirements (e.g., 2, 6, 12, 20, 30, 42, 56, 56, 42, 30, 20, 12, 6, and 2 presses per food reward). Six such full cycles were presented during each daily session.
# Synthetic Aβ1-42 powder was dissolved in 1,1,1,3,3,3-hexafluorisopropanol (HFIP) to afford a solution of Aβ1-42 in HFIP of about 1 mM and allowed to incubate at ambient temperature for about 1 h. The resulting solution was chilled on ice for about 5-10 min, then aliquoted into eppendorf tubes to provide about 50 μL of solution per tube. The tubes were then placed in a chemical fume hood and allowed to stand overnight to allow the HFIP to evaporate under a slow stream of nitrogen. To remove final traces of HFIP, the tubes were subjected to two SpeedVac cycles of 15 min at room temperature and about 15 to 25 mm Hg of vacuum. The resulting films of monomerized Aβ1-42 peptide were stored over desiccant at −80° C. until used.
# A tube of monomerized Aβ1-42 peptide was warmed to room temperature and the Aβ1-42 peptide was dissolved in anhydrous DMSO to afford a peptide stock DMSO solution containing about 10 μM to about 100 μM Aβ1-42 peptide in DMSO.
# The concentration of the test compound is listed below in Table 3.
# For the Aβ1-42 peptide only treatment, peptide stock DMSO solution was added to 37° C. neural basal to obtain the requisite Aβ1-42 peptide monomer concentration, provided that the maximum concentration of DMSO is 1% or less, and the tube was vortexed for 30 to 60 seconds, spun down briefly in a microfuge and incubated at 37° C. for 15 min prior to the start of injections.
# For the Aβ1-42 peptide plus test compound treatment, peptide stock DMSO solution was added to 37° C. compound neural basal media solution to obtain the requisite Aβ1-42 peptide monomer concentration, provided that the maximum concentration of DMSO is 1% or less, and the tube was vortexed for 30 to 36 seconds, spun down briefly in a microfuge and incubated at 37° C. for 15 min prior to the start of injections.
# For control injections, compound neural basal media solution was incubated at 37° C. for 15 min prior to the start of injections.
# Rats: Rats are trained under ALCR until their error rates are stable. Once the rats are placed upon the final ALCR procedure, training sessions are conducted 7 days each week until the end of the study.
# Surgery: All rats received a single 28 gauge cannula, which was permanently affixed to the skull, and aimed at the lateral ventricle. Half of the rats received cannula in the right ventricle and half receive cannula in the left ventricle. Rats were allowed 5 days to recover from surgery before training resumed.
# Injection of Test Material and ALCR Testing: Test were conducted about every fourth day. Animals received a 10-20 μL injection of control, peptide, or peptide plus compound solutions via the implanted cannula over about 3 to 4 minutes. Animals were tested about 3 hours following injection. […]
# Aβ1-42 = Aβ1-42 (Homo sapiens, UniProt P05067); assay: FRET assay of Aβ1-42 oligomer (ADDL) assembly inhibition; format: biochemical; details: 0.2 μM FITC-Aβ(1-42) and 0.8 μM Aβ(1-42), 37° C., six concentrations from about 10 μM to about 0.03 μM
# Summary of the method: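 Fluorescein-quenching FRET read with 0.2 μM FITC-Aβ(1-42) plus 0.8 μM Aβ(1-42) in 25 mM MOPS-Tris pH 8.0, 100 mM MgCl2, 37° C. Compound tested at six concentrations from about 10 μM down to about 0.03 μM. Fluorescence read every five minutes over about three hours; inhibition seen as absent or attenuated quenching.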
# [1] = 1 nM ADDLs + 2 μM compound, rats tested about 3 hours after injection
# [2] = 2 μM compound alone (no ADDLs), rats
# [3] = ADDLs injected along with compound, rats
# [4] = 27 nM Aβ1-42 monomer alone, rats
# Sequence of Aβ1-42 (P05067 672-713 limits assumed): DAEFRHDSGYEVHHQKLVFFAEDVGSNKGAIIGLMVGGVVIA
# T1 sequence (P05067 672-713 limits assumed): as above
compound,measurement,setting,value
"O=C(N/N=C/c1c(O)ccc2ccccc12)c1ccccc1O [Compound 89, 2-hydroxy-N′-((2-hydroxy-naphthalen-1-yl)methylene)benzohydrazide]",Approach Errors,Aβ1-42 ADDLs; [1],100% and 111%
same,Perseveration Errors,Aβ1-42 ADDLs; [1],92% and 107%
same,Approach Errors,Aβ1-42 ADDLs; [2],101%
same,Perseveration Errors,Aβ1-42 ADDLs; [2],112%
same,Perseveration error (in words),Aβ1-42 ADDLs; [3],decreased significantly
Aβ1-42 Monomer: monomerized synthetic Aβ1-42 peptide [reference compound],Approach Errors,Aβ1-42 ADDLs; [4],105%
same,Perseveration Errors,Aβ1-42 ADDLs; [4],117%
"ADDLs: amyloid beta-derived diffusable ligands: soluble, oligomeric, globular, non-fibrillar, neurotoxic Aβ1-42 peptides, made from synthetic Aβ1-42 [reference compound]",Approach Errors,"Aβ1-42 ADDLs; 1 nM ADDLs alone, rats",102% and 142%
same,Perseveration Errors,"Aβ1-42 ADDLs; 1 nM ADDLs alone, rats",133% and 127%
same,Perseveration error (in words),"Aβ1-42 ADDLs; ADDLs compared to vehicle or Aβ1-42 monomer alone, rats",increased the Perseveration error
"O=C(C/C(=N/NC(=O)c1ccccc1O)C(F)(F)F)c1cccs1 [Compound 2, 2-hydroxy-N′-(1,1,1-trifluoro-4-oxo-4-(thiophen-2-yl)butan-2-ylidene)benzohydrazide]",IC50,Aβ1-42,4.5 µM
same,Approach Errors,Aβ1-42 ADDLs; [1],115%
same,Perseveration Errors,Aβ1-42 ADDLs; [1],105%
same,Approach Errors,Aβ1-42 ADDLs; [2],92%
same,Perseveration Errors,Aβ1-42 ADDLs; [2],85%
same,Perseveration error (in words),Aβ1-42 ADDLs; [3],decreased significantly
"COc1ccc(O)c(/C=N/NC(=O)c2ccc3ccccc3c2O)c1 [Compound 38, 1-hydroxy-N′-(2-hydroxy-5-methoxybenzylidene)-2-naphtho-hydrazide]",IC50,Aβ1-42,1.2 µM
"COc1ccc(O)c(/C=N/NC(=O)c2scc(C)c2Cl)c1 [Compound 70, 3-chloro-N′-(2-hydroxy-5-methoxy-benzylidene)-4-methylthiophene-2-carbohydrazide]",IC50,Aβ1-42,9.4 µM
"O=C(N/N=C/c1ccc2ccccc2c1O)c1ccccc1O [Compound 72, 2-hydroxy-N′-((1-hydroxy-naphthalen-2-yl)methylene)benzohydrazide]",IC50,Aβ1-42,10.4 µM
